The source of these data is patent US6645973B1, “Spiro(2h-1-benzopyran-2,4-piperidine)derivatives as glycine transport inhibitors” (Akzo Nobel, priority 1999, dated 2003).

Broadly, the melting point is the temperature, or range, at which the solid turns liquid.

Counter-ions that a name gives are not always drawn.

In turn, `C#CCOc1c(F)cc(C2=CC3(CCN(CC(=O)O)CC3)Oc3ccccc32)cc1F` (as salt: hydrochloride) [Example 57, 1′-Carboxymethyl-4-(3,5-difluoro-4-propargyloxyphenyl)spiro[2H-1-benzopyran-2,4′-piperidine]hydrochloride] had a melting point of 211 to 217 °C.
Take `O=C(O)CN1CCC2(C=C(c3ccc4ccccc4c3)c3ccccc3O2)CC1` (as salt: hydrochloride) [Example 10, 1′-Carboxymethyl-4-(2-naphthyl)spiro[2H-1-benzopyran-2,4′-piperidine]hydrochloride]: the melting point was 253 to 264 °C.
The result for `CN(C)c1ccc(C2=CC3(CCN(CC(=O)O)CC3)Oc3ccccc32)cc1` (as salt: hydrochloride) [Example 24, 1′-Carboxymethyl-4-[4-(N,N-dimethylamino)phenyl]spiro[2H-1-benzopyran-2,4′-piperidine]hydrochloride] reads 238 to 250 °C; that for `O=C(O)CN1CCC2(C=C(c3cc(F)c(OCC(F)(F)F)c(F)c3)c3ccccc3O2)CC1` (as salt: hydrochloride) [Example 59, 1′-Carboxymethyl-4-(3,5-difluoro-4-trifluoroethoxyphenyl)spiro[2H-1-benzopyran-2,4′-piperidine]hydrochloride], 244 to 251 °C; that for `CN(C)c1ccc(C2=CC3(CCN(CC(=O)O)CC3)Oc3ccccc32)cc1F` (as salt: hydrochloride) [Example 37, 1′-Carboxymethyl-4-(4-dimethylamino-3-fluorophenyl)spiro[2H-1-benzopyran-2,4′-piperidine]hydrochloride], 231 to 239 °C.
Take `O=C(O)CN1CCC2(C=C(c3ccc(Cl)cc3)c3ccccc3O2)CC1` (as salt: hydrochloride) [Example 2, 1′-Carboxymethyl-4-(4-chlorophenyl)spiro[2H-1-benzopyran-2,4′-piperidine]hydrochloride]: the melting point lay in the range of 259 to 265 °C.
`O=C(O)CN1CCC2(C=C(c3ccc(Cl)c(F)c3)c3ccccc3O2)CC1` (as salt: hydrochloride) [Example 8, 1′-Carboxymethyl-4-(4-chloro-3-fluorophenyl)spiro[2H-1-benzopyran-2,4′-piperidine]hydrochloride] gave a melting point of 263 to 274 °C.
The result for `O=C([O-])CN1CCC2(C=C(c3ccc(F)cc3)c3ccccc3O2)CC1.[Li+]` reads 285 to 291 °C (dec.); that for `O=C([O-])CN1CCC2(C=C(c3ccccc3)c3cc(F)ccc3O2)CC1.[Li+]`, 293 to 298 °C (dec.).
